Test results reported in patent publication US6696475B2, “Substituted phenyl derivatives, their preparation and use” (NeuroSearch A/S, priority 1997, dated 2004).

Columns and labels:
[1] = target: erythrocyte chloride channels; assay: Cl- conductance (GCl) from conductive netfluxes of Cl- and membrane potentials in suspensions of normal erythrocytes; assay type: cell-based, Human; conditions: suspension of normal erythrocytes; for Kd: read-out: KD-value for block of GCl
Description: (§1) The compounds of the present invention are potent blockers of chloride channels in normal as well as sickle cell erythrocytes.
(§2) All dose-response experiments were therefore performed by concomitant measurements of conductive neffluxes of Cl^− (JCl) and membrane potentials (Vm) in suspensions of erythrocytes (Bennekou, P. and Christophersen, P. (1986), Flux ratio of Valinomycin—Mediated K^+ Fluxes across the Human Red Cell Membrane in the presence of the Protronophore CCCP. J. Membrane Biol. 93, 221-227. ). The membrane Cl^− conductances (GCl) were calculated by the following equation (Hodgkin, A. L. and Huxley, A. F. (1952) The components of membrane conductance in the giant axon of Loligo. J. Physiol. Lond. 116, 449-472): [formula]
(§3) where F is the Faraday constant, ECl is the Nernst potential for the Cl-ion.

[2] = test system: erythrocyte chloride channels (homozygoteous sickle cell erythrocytes); assay: Cl- conductance (GCl) in sickle cell erythrocytes; assay type: cell-based, Human; conditions: oxygenated as well as deoxygenated homozygoteous sickle cell erythrocytes
Description: as §1, §2, §3

erythrocytes = assay: Valinomycin induced cell volume loss, relative volume of packed cells; assay type: cell-based; conditions: valinomycin for 5 min; volume loss 26% without compound
Description: Inducing a massive water and salt loss (KCl) by addition the K^+-ionophore valinomycin to the suspension for 5 min reduced the cell volume by 26%.

sickle erythrocytes = assay: Deoxygenation induced permeability increase of sickle cells, extracellular K+-concentration vs time; assay type: cell-based; conditions: 10 μM
Description: (§4) Deoxygenation induced permeability increases of sickle cells were estimated by measuring the extracellular K^+-concentration vs time. […] The K^+ flux from oxygenated sickle erythrocytes was 2-3 times higher than from normal erythrocytes and these fluxes was accelerated 4-8 times upon deoxygenation.

mice = conditions: mouse, in vivo
Description: (§5) 3-Trifluoromethylphenyl-2-carboxyphenyl urea is non-toxic to mice and rats at concentrations up to 250 mg/kg i.p. and i.v.

rats = conditions: rat, in vivo
Description: as §5

Normal erythrocytes = assay: K+-flux from normal erythrocytes, extracellular K+-concentration vs time; assay type: cell-based; conditions: 10 μM
Description: as §4

bone resorbtion = conditions: in vitro; cited from earlier work
bone degration = conditions: growing yound rats; cited from earlier work
proton pump = conditions: cited from earlier work

O=C(Nc1cccc(C(F)(F)F)c1)Nc1ccc(Br)cc1-c1nnn[nH]1 [3-Trifluoromethylphenyl-4-bromo-2-(5-tetrazolyl)phenyl Urea]
Kd [1]: 1900 nM

O=C(Nc1cccc(C(F)(F)F)c1)Nc1ccccc1C(=O)O [N-3-Trifluoromethylphenyl-N′-2-carboxyphenyl Urea]
block of GCl compared with normal erythrocytes [2]: equipotently blocked | cell volume loss in presence of compound (erythrocytes): 7% | basal K+-flux from sickle erythrocytes (sickle erythrocytes): normalised | deoxygenation induced K+ flux component (sickle erythrocytes; deoxygenated sickle erythrocytes): nearly abolished | block of GCl [1]: more than 95% | Kd [1]: 1300 nM | non-toxic dose (mice): up to 250 mg/kg | non-toxic dose (rats): up to 250 mg/kg | effect on K+-fluxes of normal erythrocytes (Normal erythrocytes): insensitive

CN(C)S(=O)(=O)c1ccc(-c2ccc(NC(=O)Nc3cccc(C(F)(F)F)c3)c(-c3nnn[nH]3)c2)cc1 [N-(3-Trifluoromethylphenyl)-N′-(4′-(N,N-dimethylsulfamoyl)-2-(1-H-tetrazol-5-yl)-4-biphenyl) urea]
melting point: 258 to 260 °C | Kd [1]: 300 nM

CC(=O)Nc1nnc(S(N)(=O)=O)s1 [acetacolamide]
effect on bone resorbtion, pit formation (bone resorbtion): effective

CO/C1=C\C(C)=C\[C@@H](C)[C@@H](O)[C@@H](C)C/C(C)=C/C=C/[C@H](OC)[C@@H]([C@@H](C)[C@@H](O)[C@H](C)[C@@]2(O)C[C@@H](O)[C@H](C)[C@@H](C(C)C)O2)OC1=O [bafilomycin A1]
effect on bone resorbtion, pit formation (bone resorbtion): completely eliminates | effect on bone degration (bone degration): depresses | block of the proton pump (proton pump): extremely potent, reversible inhibitor

COc1ccc2[nH]c([S+]([O-])Cc3ncc(C)c(OC)c3C)nc2c1 (centres unmarked) [omeprazol]
block of the proton pump (proton pump): ineffective
